Source: patent US20230150952A1, “TYPE 2 RYANODINE RECEPTOR ACTIVITY INHIBITOR” (JUNTENDO EDUCATIONAL FOUNDATION, priority 2020, published 2023)

Target: type 2 ryanodine receptor (Mus musculus, UniProt E9Q401)
Assay: type 2 ryanodine receptor activity inhibitory effect: endoplasmic reticulum Ca2+ (R-CEPIA1er fluorescence) in RyR-expressing HEK293 cells
Assay type: cell-based
Settings: final concentration 10^-9 to 10^-4 M; Hill equation fit; ER Ca2+ fluorescence in HEK293 cells
Procedure: The EC50 value of each of the compounds shown in Table 13 with respect to the type 2 ryanodine receptor activity inhibitory effect, was measured in accordance with the following procedure.
cDNA of RyR2 was cloned from the heart muscle of a mouse by a PCR method and introduced into an expression vector (pcDNA5/FRT/TO) for Flp-In T-REX having hygromycin resistance. The vector is a tetracycline-inducible expression (Tet-On) vector and induces expression of RyR in the presence of doxycycline.
Also, R-CEPIA1er described in Nat. Commun., 2014, 5: 4153 was introduced into a neomycin resistant expression vector, pCMV/myc/ER. This vector constantly expresses R-CEPIA1er.
As HEK293 cells, Flp-In T-REX 293 cells corresponding to the Tet-On inducible system were prepared. The cells were cultured in a CO2 incubator at 37° C.
(§1) A pathogenic mutant-type RyR gene was introduced into Flp-In T-REX 293 cells by a lipofection method. The cells were cultured in a medium containing hygromycin for 10 to 14 days to establish a pathogenic mutant RyR stably expressing strain. Into the pathogenic mutant RyR stably expressing strain, an R-CEPIA1er expression vector was introduced by a lipofection method. The strain was cultured in a medium containing G418 to establish a stable dual expression strain expressing a pathogenic mutant-type RyR gene and R-CEPIA1er.
as §1, with “A wild-type” for “A pathogenic mutant-type”, “a” for “a pathogenic mutant”, “the” for “the pathogenic mutant”, “a wild-type” for “a pathogenic mutant-type”
The cultured cells expressing a pathogenic mutant RyR and R-CEPIA1er and the cultured cells expressing wild type RyR and R-CEPIA1er were separately cultured in plastic dishes at 37° C. for 24 hours. Then, the medium was exchanged with a medium containing doxycycline and the cells were further cultured for 24 hours. Fluorescence measurement was carried out by use of FlexStation. R-CEPIA1er was excited at 560 nm to acquire fluorescence at 610 nm. Fluorescence was acquired every 10 seconds for 300 seconds. The compounds shown in Table 13 each were added 60 seconds after initiation, and Ca^2+ concentration in the fluorescent endoplasmic reticulum was measured.
Inhibitory effects of the compounds on type 2 ryanodine receptor activity shown in Table 13 each were measured in the range of a final concentration of 10^−9 to 10^−4 M by the methods above. Based on the measurement results, a dose-response curve approximating the Hill equation was obtained by the least squares method. In this manner, EC50 values were calculated.

Chain of type 2 ryanodine receptor (E9Q401 whole entry): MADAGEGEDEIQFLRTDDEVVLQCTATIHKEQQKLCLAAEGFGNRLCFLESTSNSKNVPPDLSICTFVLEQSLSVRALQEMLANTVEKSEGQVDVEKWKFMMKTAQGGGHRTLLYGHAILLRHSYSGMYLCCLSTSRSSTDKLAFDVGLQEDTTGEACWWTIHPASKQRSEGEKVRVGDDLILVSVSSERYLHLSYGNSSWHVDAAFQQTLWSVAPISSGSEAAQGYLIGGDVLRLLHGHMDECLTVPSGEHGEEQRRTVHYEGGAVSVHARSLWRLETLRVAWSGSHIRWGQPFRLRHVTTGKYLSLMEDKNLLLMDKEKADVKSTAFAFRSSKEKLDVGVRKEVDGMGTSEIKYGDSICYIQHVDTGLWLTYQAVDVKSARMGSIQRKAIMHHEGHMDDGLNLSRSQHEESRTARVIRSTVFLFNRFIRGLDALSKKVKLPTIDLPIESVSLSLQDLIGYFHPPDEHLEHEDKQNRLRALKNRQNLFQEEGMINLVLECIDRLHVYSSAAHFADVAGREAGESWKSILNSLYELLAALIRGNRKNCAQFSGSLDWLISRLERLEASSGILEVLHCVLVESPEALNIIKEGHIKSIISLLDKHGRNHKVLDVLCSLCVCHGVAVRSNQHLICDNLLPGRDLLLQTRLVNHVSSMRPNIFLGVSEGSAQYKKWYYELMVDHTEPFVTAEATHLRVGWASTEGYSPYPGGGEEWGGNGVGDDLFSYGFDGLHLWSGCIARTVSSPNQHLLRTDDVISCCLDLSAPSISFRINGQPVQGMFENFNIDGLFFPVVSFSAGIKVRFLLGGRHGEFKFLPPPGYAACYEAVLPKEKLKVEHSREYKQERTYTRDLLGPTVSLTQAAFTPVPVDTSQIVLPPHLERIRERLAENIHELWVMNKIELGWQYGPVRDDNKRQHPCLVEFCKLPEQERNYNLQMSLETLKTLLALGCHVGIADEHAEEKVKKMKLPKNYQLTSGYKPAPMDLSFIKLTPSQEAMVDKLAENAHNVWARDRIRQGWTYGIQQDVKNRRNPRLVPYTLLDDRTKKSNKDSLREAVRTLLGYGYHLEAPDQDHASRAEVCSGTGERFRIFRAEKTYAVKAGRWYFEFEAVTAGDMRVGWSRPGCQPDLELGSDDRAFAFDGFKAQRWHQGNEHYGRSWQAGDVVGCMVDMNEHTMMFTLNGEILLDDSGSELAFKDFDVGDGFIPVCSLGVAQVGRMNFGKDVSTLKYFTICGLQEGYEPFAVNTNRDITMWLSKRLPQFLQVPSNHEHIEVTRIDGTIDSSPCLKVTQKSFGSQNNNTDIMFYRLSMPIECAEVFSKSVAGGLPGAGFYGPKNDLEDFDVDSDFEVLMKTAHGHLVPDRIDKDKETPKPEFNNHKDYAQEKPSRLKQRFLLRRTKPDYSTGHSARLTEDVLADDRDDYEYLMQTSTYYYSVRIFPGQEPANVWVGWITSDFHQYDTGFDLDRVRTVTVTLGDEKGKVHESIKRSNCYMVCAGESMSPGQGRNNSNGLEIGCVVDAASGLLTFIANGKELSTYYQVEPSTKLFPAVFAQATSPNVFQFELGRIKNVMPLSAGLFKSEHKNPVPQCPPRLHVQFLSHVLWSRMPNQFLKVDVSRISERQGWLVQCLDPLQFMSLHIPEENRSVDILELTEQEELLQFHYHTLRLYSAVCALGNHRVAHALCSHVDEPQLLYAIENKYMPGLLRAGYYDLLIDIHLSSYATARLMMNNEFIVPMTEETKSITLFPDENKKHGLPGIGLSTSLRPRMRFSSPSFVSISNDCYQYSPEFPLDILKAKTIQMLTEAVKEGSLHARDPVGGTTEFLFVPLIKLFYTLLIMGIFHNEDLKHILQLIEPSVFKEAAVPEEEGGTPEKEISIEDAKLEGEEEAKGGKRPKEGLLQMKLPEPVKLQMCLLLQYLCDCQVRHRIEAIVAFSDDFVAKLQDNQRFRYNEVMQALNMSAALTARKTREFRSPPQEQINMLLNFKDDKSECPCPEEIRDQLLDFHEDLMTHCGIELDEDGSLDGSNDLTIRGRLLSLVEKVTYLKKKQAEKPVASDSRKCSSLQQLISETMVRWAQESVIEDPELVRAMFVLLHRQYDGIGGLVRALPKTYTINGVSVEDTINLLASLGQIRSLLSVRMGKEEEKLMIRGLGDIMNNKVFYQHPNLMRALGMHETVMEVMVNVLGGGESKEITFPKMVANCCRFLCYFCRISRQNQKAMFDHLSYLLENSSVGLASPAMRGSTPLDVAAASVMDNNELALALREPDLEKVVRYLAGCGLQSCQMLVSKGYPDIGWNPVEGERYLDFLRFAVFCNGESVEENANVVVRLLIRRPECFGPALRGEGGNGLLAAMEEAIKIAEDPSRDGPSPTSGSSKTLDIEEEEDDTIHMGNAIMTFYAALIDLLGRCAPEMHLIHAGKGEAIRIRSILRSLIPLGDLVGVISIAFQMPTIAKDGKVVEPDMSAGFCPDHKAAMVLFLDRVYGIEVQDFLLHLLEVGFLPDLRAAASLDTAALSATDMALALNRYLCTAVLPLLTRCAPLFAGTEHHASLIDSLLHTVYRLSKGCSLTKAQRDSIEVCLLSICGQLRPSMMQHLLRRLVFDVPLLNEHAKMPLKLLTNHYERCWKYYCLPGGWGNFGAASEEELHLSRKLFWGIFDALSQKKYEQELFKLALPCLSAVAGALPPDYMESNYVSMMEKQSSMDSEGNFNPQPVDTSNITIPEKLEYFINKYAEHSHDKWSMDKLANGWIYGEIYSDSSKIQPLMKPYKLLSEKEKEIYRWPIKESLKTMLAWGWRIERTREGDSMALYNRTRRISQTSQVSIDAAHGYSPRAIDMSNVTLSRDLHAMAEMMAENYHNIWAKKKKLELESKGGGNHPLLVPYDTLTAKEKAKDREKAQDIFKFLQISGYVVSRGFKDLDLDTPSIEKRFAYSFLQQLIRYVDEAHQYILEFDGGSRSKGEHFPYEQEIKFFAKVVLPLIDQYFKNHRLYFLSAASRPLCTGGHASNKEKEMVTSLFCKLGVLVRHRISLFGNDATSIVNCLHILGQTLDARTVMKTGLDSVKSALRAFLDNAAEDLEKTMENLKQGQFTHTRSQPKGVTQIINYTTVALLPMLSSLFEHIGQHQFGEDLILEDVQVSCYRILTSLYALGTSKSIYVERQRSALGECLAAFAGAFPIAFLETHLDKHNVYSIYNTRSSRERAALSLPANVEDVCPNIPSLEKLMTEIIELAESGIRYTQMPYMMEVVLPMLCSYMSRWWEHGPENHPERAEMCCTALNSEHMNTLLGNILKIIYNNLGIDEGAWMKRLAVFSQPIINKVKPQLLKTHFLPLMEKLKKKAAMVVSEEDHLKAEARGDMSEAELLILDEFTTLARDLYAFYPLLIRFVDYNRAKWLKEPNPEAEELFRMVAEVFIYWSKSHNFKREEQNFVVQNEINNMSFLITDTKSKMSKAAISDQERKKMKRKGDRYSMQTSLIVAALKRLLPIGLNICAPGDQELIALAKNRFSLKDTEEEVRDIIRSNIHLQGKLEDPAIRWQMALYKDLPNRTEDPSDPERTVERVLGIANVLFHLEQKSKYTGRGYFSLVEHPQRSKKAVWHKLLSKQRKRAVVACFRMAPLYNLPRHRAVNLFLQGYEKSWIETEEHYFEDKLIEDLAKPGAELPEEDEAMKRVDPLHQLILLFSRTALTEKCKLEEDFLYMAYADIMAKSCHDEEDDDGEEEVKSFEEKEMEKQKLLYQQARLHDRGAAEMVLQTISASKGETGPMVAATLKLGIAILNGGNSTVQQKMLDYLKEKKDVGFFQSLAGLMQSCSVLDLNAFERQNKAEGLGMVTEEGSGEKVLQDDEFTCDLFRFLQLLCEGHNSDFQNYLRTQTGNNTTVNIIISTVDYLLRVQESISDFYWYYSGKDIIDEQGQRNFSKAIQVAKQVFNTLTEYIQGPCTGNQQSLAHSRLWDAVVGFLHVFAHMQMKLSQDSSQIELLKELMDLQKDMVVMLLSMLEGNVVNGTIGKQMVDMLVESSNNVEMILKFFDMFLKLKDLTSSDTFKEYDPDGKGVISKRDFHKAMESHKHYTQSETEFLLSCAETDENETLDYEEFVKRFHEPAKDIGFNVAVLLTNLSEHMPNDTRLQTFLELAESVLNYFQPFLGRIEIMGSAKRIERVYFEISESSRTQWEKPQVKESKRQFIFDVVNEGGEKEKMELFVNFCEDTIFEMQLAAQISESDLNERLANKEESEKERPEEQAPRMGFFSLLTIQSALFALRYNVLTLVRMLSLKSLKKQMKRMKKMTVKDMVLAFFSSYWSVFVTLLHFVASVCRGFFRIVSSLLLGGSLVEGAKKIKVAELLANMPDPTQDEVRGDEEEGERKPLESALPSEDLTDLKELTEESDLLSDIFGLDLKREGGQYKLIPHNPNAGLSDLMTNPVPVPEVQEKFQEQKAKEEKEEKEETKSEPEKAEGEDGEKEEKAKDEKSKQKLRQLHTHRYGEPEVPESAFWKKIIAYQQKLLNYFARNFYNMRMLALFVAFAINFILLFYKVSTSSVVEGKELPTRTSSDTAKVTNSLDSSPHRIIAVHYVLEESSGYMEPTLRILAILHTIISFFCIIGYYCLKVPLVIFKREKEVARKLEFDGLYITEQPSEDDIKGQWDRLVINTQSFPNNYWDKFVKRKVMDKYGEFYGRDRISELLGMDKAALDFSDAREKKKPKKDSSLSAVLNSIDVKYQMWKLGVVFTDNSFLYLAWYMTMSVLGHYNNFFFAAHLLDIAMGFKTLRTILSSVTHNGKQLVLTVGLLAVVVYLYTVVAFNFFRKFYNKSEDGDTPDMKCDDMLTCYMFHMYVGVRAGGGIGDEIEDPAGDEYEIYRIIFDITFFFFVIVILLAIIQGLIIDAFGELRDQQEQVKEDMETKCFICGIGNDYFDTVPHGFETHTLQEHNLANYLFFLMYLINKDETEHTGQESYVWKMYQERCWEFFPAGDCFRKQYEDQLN

CN(C(=O)Cn1nnc(-c2ccccc2)n1)c1ccccc1 [Compound 35] was tested. Which EC50 did it give?
The EC50 was 676 nM.

With Cc1cccc(N(C)C(=O)Cn2nnc(-c3ccccc3)n2)c1 [Compound 37] as the compound, how does the EC50 read?
The EC50 was 606 nM.

For Cc1ccc(N(C)C(=O)Cn2nnc(-c3ccccc3)n2)cc1 [Compound 38], which EC50 is on record?
Its EC50 is 2770 nM.

How did the EC50 turn out when COc1cccc(N(C)C(=O)Cn2nnc(-c3ccccc3)n2)c1 [Compound 40] was run?
Its EC50 is 8310 nM.

For COc1ccc(N(C)C(=O)Cn2nnc(-c3ccccc3)n2)cc1 [Compound 41], which EC50 is on record?
Its EC50 is 154 nM.

For COc1ccccc1-c1nnn(CC(=O)N(C)c2ccccc2)n1 [Compound 45], which EC50 is on record?
Its EC50 is 3370 nM.

Which EC50 does the source give for COc1cccc(-c2nnn(CC(=O)N(C)c3ccccc3)n2)c1 [Compound 46] here?
Its EC50 is 147 nM.

Which EC50 does the source give for COc1ccc(-c2nnn(CC(=O)N(C)c3ccccc3)n2)cc1 [Compound 47] here?
Its EC50 is 1250 nM.

For COc1ccc(N(C)C(=O)Cn2nnc(-c3cccc(OC)c3)n2)cc1 [Compound 48], which EC50 is on record?
Its EC50 is 43 nM.

With COc1cccc(-c2nnn(CC(=O)N(C)c3ccc(F)cc3)n2)c1 [Compound 49] as the compound, how does the EC50 read?
The EC50 was 44 nM.

With COc1ccc(N(C)C(=O)Cn2nnc(-c3cccc(F)c3)n2)cc1 [Compound 50] as the compound, how does the EC50 read?
Its EC50 is 36 nM.

With CN(C(=O)Cn1nnc(-c2cccc(F)c2)n1)c1ccc(F)cc1 [Compound 51] as the compound, how does the EC50 read?
Its EC50 is 49 nM.

How did the EC50 turn out when COc1cccc(-c2nnn(CC(=O)N(C)c3ccc(F)c(OC)c3)n2)c1 [Compound 53] was run?
The EC50 was 51 nM.

How did the EC50 turn out when COc1cccc(-c2nnn(CC(=O)N(C)c3ccc4c(c3)OCO4)n2)c1 [Compound 54] was run?
Its EC50 is 48 nM.

CN(C(=O)Cn1nnc(-c2cc(F)cc(F)c2)n1)c1ccc(F)cc1 [Compound 57] was tested. Which EC50 did it give?
The EC50 was 15 nM.

With CCN(C(=O)Cn1nnc(-c2ccccc2)n1)c1ccccc1 [Compound 58] as the compound, how does the EC50 read?
The EC50 was 5460 nM.

How did the EC50 turn out when CCN(C(=O)Cn1nnc(-c2ccccc2)n1)c1ccc(OC)cc1 [Compound 59] was run?
The EC50 was 1360 nM.

CCN(C(=O)Cn1nnc(-c2ccccc2)n1)c1ccc(F)cc1 [Compound 60] was tested. Which EC50 did it give?
The EC50 was 768 nM.

With CCN(C(=O)Cn1nnc(-c2ccccc2)n1)c1ccc(OC(F)(F)F)cc1 [Compound 61] as the compound, how does the EC50 read?
Its EC50 is 44200 nM.

With CCN(C(=O)Cn1nnc(-c2ccc(OC)cc2)n1)c1ccc(OC)cc1 [Compound 62] as the compound, how does the EC50 read?
The EC50 was 2680 nM.

CCN(C(=O)Cn1nnc(-c2ccc(OC(F)(F)F)cc2)n1)c1ccc(F)cc1 [Compound 63] was tested. Which EC50 did it give?
Its EC50 is 1050 nM.

How did the EC50 turn out when CCCN(C(=O)Cn1nnc(-c2ccccc2)n1)c1ccccc1 [Compound 66] was run?
The EC50 was 39500 nM.

For COc1ccc(N(C)C(=S)Cn2nnc(-c3cccc(OC)c3)n2)cc1 [Compound 67], which EC50 is on record?
The EC50 was 41 nM.

COc1cccc(-c2nnn(CC(=S)N(C)c3ccc(F)cc3)n2)c1 [Compound 68] was tested. Which EC50 did it give?
Its EC50 is 31 nM.

For COc1ccc(N(C)C(=S)Cn2nnc(-c3cccc(F)c3)n2)cc1 [Compound 69], which EC50 is on record?
Its EC50 is 39 nM.

CN(C(=S)Cn1nnc(-c2cccc(F)c2)n1)c1ccc(F)cc1 [Compound 70] was tested. Which EC50 did it give?
Its EC50 is 33 nM.

Tested on: mouse having RyR2 I4093V mutation
Assay: electrocardiogram of RyR2 mutation-harboring mouse before and after intraperitoneal administration
Assay type: in vivo
Settings: 0.3 mg/kg intraperitoneal; 5-15 minutes after administration; FIG. 2
Excerpt: In Riken BRC, male mice administered with N-ethyl-N-nitrosourea (ENU) were crossed with normal wild type females to obtain child mice (First generation: G1). These G1 mice were subjected to systematic phenotypic screening. […] As a result, a mouse having RyR2 I4093V mutation (RyR2 c.12277A>G (NM_023868.2) p.I4093V (NP_076357.2)) was found. The mouse was backcrossed with a normal wild type mouse (8 generations or more). As a result, mice conceivably having a mutation of RyR2 I4093V alone were obtained.
Compound 57 shown in Table 10 was dissolved in saline (0.9% aqueous NaCl solution) to prepare a 0.03-0.1 mg/mL solution containing compound 57. • (3) Measurement of Electrocardiogram of RyR2 Mutation-Harboring Mouse and Administration of Drug
The aforementioned mutant mice of 4-5 months old were subjected to anesthesia induction with 2% isoflurane. While maintaining the anesthetic state with 1% isoflurane, electrodes for electrocardiogram were attached to four limbs and electrocardiographical monitoring was continuously carried out. Before drug administration, electrocardiographical monitoring was carried out for 10 minutes. Then, the solution containing compound 57 prepared above was intraperitoneally injected so as to have a concentration of 0.3 mg/kg or 1 mg/kg. The electrocardiogram was recorded for further 15 minutes.
The time during which successive bigeminal pulse, trigeminal pulse or ventricular tachycardia (regarded as arrhythmia) occurred during 5-15 minutes after administration of compound 57, were summed up per individual and the ratio of time when arrhythmia occurs was obtained.

For CN(C(=O)Cn1nnc(-c2cc(F)cc(F)c2)n1)c1ccc(F)cc1 [Compound 57], which “occurrence of arrhythmia (ratio of time when arrhythmia occurs)” value is on record?
The value was “low”.

Same assay, conditions: 0.3 mg/kg intraperitoneal; RyR2 I4093V mice; FIG. 1

Which “ECG (bidirectional ventricular tachycardia before administration)” value does the source give for CN(C(=O)Cn1nnc(-c2cc(F)cc(F)c2)n1)c1ccc(F)cc1 [Compound 57] here?
Its value is “went back to normal”.

Same assay, conditions: 1 mg/kg intraperitoneal; 5-15 minutes after administration; FIG. 2

Which “occurrence of arrhythmia (ratio of time when arrhythmia occurs)” value does the source give for CN(C(=O)Cn1nnc(-c2cc(F)cc(F)c2)n1)c1ccc(F)cc1 [Compound 57] here?
The value was “low”.
